{
  "source": "patent US8445712B2",
  "about": "“Phospholipid derivative and pH-responsive liposomes” (NOF Corporation, priority 2009, dated 2013)",
  "test": "Measurement test of pH-sensitiveness of liposome (release of enclosed pyranine/DPX at a given pH)",
  "assay_type": "physicochemical",
  "conditions": "Example 15 (Table 2) compared with Example 19 (Table 3); 11 mol % derivative in EYPC liposome",
  "method": "Using the liposomes prepared in Examples 5-13 and Comparative Example 1, pH-sensitiveness measurement tests were performed.\nTo the liposome solution obtained in Example 5 was added phosphate buffered saline (hereinafter to be indicated as “PBS”) to adjust the lipid concentration of the liposome to 1.6 mmol/l. The PBS (2469 μl) adjusted to a given pH with 1N hydrochloric acid was placed in a quartz cell, a liposome dispersion (31 μl) was added thereto at 37° C. to adjust the lipid concentration to 20 μmol/l. After incubation at 37° C. for 15 min, fluorescence intensity (F15min) was measured. In addition, 10% aqueous Triton X-100 (manufactured by Sigma-Aldrich Japan Co. Ltd.) solution (25 μl) was added thereto, and the mixture was stirred, and the fluorescence intensity (Fmax) was measured.\nThe release (%) was calculated by the following formula.\n[formula] F15min: fluorescence intensity at 15 min after liposome addition F0: fluorescence intensity at t=0 by measurement with PBS at pH 7.4 Fmax: fluorescence intensity after addition of Triton",
  "data": [
    {"substance": "Octaglycerolglutaryl Distearylphosphatidylethanolamine 1,2-Cyclohexanedicarboxylic Acid Derivative [DSPE-CHexPG8G]", "values": [
      {"measurement": "pH sensitive property (comparison)", "result": "stronger pH sensitive property"}
    ]}
  ]
}
